Reference: PubChem BioAssay AID330 (DTP/NCI, 2004)
Several values for one entry are separate records, joined by “and”; a condition that tells them apart may be missing. Equal values may be shown once. Inconclusive results and toxic doses are left out. The calls were made as follows: active = survival T/C of 150% or more; inactive = T/C below 125% in these data.

Tested on: P388 leukemia ip, CD2F1 mice, survival T/C
Test: NCI In Vivo Anticancer Drug Screen. Data for tumor model P388 Leukemia (intraperitoneal) in CD2F1 (CDF1) mice
Conditions: endpoint: median survival time, higher = longer survival
Method in brief: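 Mice carrying the transplanted tumor received test compound or vehicle. Survival was recorded in each group, and the value is the treated-group measurement divided by that of the vehicle-treated control group.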

[1] = dose: 50.0 mg/kg/injection, schedule: Q01DX005 (ip), vehicle: saline with Tween-80
[2] = dose: 100.0 mg/kg/injection, schedule: Q01DX005 (ip), vehicle: saline with Tween-80
[3] = dose: 200.0 mg/kg/injection, schedule: Q01DX005 (ip), vehicle: saline with Tween-80
[4] = dose: 50.0 mg/kg/injection, schedule: Q01DX009 (ip), vehicle: saline
[5] = dose: 60.0 mg/kg/injection, schedule: Q01DX005 (ip), vehicle: saline with Tween-80
[6] = dose: 120.0 mg/kg/injection, schedule: Q01DX005 (ip), vehicle: saline with Tween-80
[7] = dose: 50.0 mg/kg/injection, schedule: Q01DX009 (ip), vehicle: Klucel (hydroxypropylcellulose) (HPC)
[8] = dose: 200.0 mg/kg/injection, schedule: Q01DX009 (ip), vehicle: Klucel (hydroxypropylcellulose) (HPC)
[9] = dose: 100.0 mg/kg/injection, schedule: Q01DX009 (ip), vehicle: Klucel (hydroxypropylcellulose) (HPC)
[10] = dose: 240.0 mg/kg/injection, schedule: Q01DX005 (ip), vehicle: saline with Tween-80
[11] = dose: 50.0 mg/kg/injection, schedule: Q01DX005 (ip), vehicle: Klucel (hydroxypropylcellulose) (HPC)
[12] = dose: 100.0 mg/kg/injection, schedule: Q01DX005 (ip), vehicle: Klucel (hydroxypropylcellulose) (HPC)
[13] = dose: 200.0 mg/kg/injection, schedule: Q01DX005 (ip), vehicle: Klucel (hydroxypropylcellulose) (HPC)

Measured: T/C

CC(=O)Nc1ccc(SSc2ccc(NC(C)=O)s2)s1
inactive: dose: 50.0 mg/kg/injection, schedule: Q01DX001 (ip), vehicle: saline with Tween-80 86 % of control | dose: 200.0 mg/kg/injection, schedule: Q01DX001 (ip), vehicle: saline with Tween-80 90 % of control | dose: 400.0 mg/kg/injection, schedule: Q01DX001 (ip), vehicle: saline with Tween-80 97 % of control

CCCCCCCC[N+](C)(CCCCCCCC)CCCCCCCC
inactive: dose: 1.0 mg/kg/injection, schedule: Q04DX003 (ip), vehicle: saline 104 % of control | dose: 2.0 mg/kg/injection, schedule: Q04DX003 (ip), vehicle: saline 104 % of control | dose: 4.0 mg/kg/injection, schedule: Q04DX003 (ip), vehicle: saline 108 % of control

Cc1nc2cc(C)[nH]c(=O)n2n1
inactive: [1] 105 % of control | [2] 107 % of control | [3] 104 % of control

C[N+]1(N)CCOCC1
inactive: dose: 12.5 mg/kg/injection, schedule: Q01DX009 (ip), vehicle: saline 97 % of control | dose: 25.0 mg/kg/injection, schedule: Q01DX009 (ip), vehicle: saline 100 % of control | [4] 92 % of control

CC1C2Cc3ccc(O)cc3C1(C)CCN2C (stereo not given)
inactive: [5] 92 % of control | [6] 100 % of control

O=C(O)CCCSC(=S)c1ccccc1
inactive: dose: 12.5 mg/kg/injection, schedule: Q01DX009 (ip), vehicle: Klucel (hydroxypropylcellulose) (HPC) 102 % of control | dose: 25.0 mg/kg/injection, schedule: Q01DX009 (ip), vehicle: Klucel (hydroxypropylcellulose) (HPC) 100 % of control | [7] 98 % of control and 105 % of control | [8] 101 % of control

CC(=O)c1c(O)cc(-c2ccccc2)oc1=O
inactive: dose: 9.5 mg/kg/injection, schedule: Q01DX005 (ip), vehicle: Klucel (hydroxypropylcellulose) (HPC) 91 % of control | dose: 19.0 mg/kg/injection, schedule: Q01DX005 (ip), vehicle: Klucel (hydroxypropylcellulose) (HPC) 96 % of control | dose: 38.0 mg/kg/injection, schedule: Q01DX005 (ip), vehicle: Klucel (hydroxypropylcellulose) (HPC) 93 % of control | dose: 76.0 mg/kg/injection, schedule: Q01DX005 (ip), vehicle: Klucel (hydroxypropylcellulose) (HPC) 106 % of control

O=C1C(N2CC2)=C(N2CC2)C(=O)c2ncncc21
inactive: dose: 2.5 mg/kg/injection, schedule: Q01DX005 (ip), vehicle: saline 105 % of control | dose: 5.0 mg/kg/injection, schedule: Q01DX005 (ip), vehicle: saline 104 % of control and 113 % of control | dose: 10.0 mg/kg/injection, schedule: Q01DX005 (ip), vehicle: saline 107 % of control

C/C(N)=N/OCc1ccccc1
inactive: dose: 50.0 mg/kg/injection, schedule: Q01DX005 (ip), vehicle: Klucel + Tween-80 98 % of control | dose: 50.0 mg/kg/injection, schedule: Q01DX005 (ip), vehicle: saline 92 % of control | dose: 100.0 mg/kg/injection, schedule: Q01DX005 (ip), vehicle: Klucel + Tween-80 102 % of control | dose: 100.0 mg/kg/injection, schedule: Q01DX005 (ip), vehicle: saline 107 % of control | dose: 200.0 mg/kg/injection, schedule: Q01DX005 (ip), vehicle: Klucel + Tween-80 102 % of control | dose: 200.0 mg/kg/injection, schedule: Q01DX005 (ip), vehicle: saline 102 % of control

C#CCC(B1OCCO1)B1OCCO1
inactive: dose: 25.0 mg/kg/injection, schedule: Q01DX001 (ip), vehicle: saline 100 % of control | dose: 50.0 mg/kg/injection, schedule: Q01DX001 (ip), vehicle: saline 90 % of control

C/C(=N\N=C(\[Se])N1CC(C)OC(C)C1)c1ccccn1 (stereo not given)
inactive: dose: 10.0 mg/kg/injection, schedule: Q04DX003 (ip), vehicle: saline with Tween-80 100 % of control | dose: 25.0 mg/kg/injection, schedule: Q04DX003 (ip), vehicle: saline with Tween-80 106 % of control | dose: 50.0 mg/kg/injection, schedule: Q04DX003 (ip), vehicle: saline with Tween-80 107 % of control | dose: 100.0 mg/kg/injection, schedule: Q04DX003 (ip), vehicle: saline with Tween-80 109 % of control | dose: 200.0 mg/kg/injection, schedule: Q04DX003 (ip), vehicle: saline with Tween-80 121 % of control

O=C(O)c1cccc(C(=O)O)c1Sc1ccc(Cl)cc1
inactive: dose: 100.0 mg/kg/injection, schedule: Q04DX002 (ip), vehicle: saline with Tween-80 100 % of control | dose: 200.0 mg/kg/injection, schedule: Q04DX002 (ip), vehicle: saline with Tween-80 105 % of control | dose: 400.0 mg/kg/injection, schedule: Q04DX002 (ip), vehicle: saline with Tween-80 100 % of control

Cc1ncc(C)c2c([N+](=O)[O-])cccc12
inactive: [7] 106 % of control | [9] 110 % of control | [8] 96 % of control

c1ccc2ccccc2c1
inactive: dose: 50.0 mg/kg/injection, schedule: Q01DX009 (ip), vehicle: other 100 % of control | dose: 100.0 mg/kg/injection, schedule: Q01DX009 (ip), vehicle: other 104 % of control | dose: 200.0 mg/kg/injection, schedule: Q01DX009 (ip), vehicle: other 107 % of control

O=C1C=CC(=O)C2C1CC=C1CCCCC12 (stereo not given)
inactive: dose: 7.5 mg/kg/injection, schedule: Q01DX009 (ip), vehicle: saline with Tween-80 106 % of control | dose: 15.0 mg/kg/injection, schedule: Q01DX009 (ip), vehicle: saline with Tween-80 109 % of control | dose: 30.0 mg/kg/injection, schedule: Q01DX009 (ip), vehicle: saline with Tween-80 103 % of control

CC(C)(C)C1(C#N)C(=O)N(c2ccc(Cl)cc2)C12c1ccccc1-c1ccccc12 (stereo not given)
inactive: [7] 99 % of control | [9] 118 % of control | [8] 105 % of control

CC(=O)/C=C1/NC(C(=O)c2ccccc2)=CNC1c1ccccc1 (stereo not given)
inactive: [5] 102 % of control | [6] 91 % of control | [10] 95 % of control

O=C1C(Br)=C(Nc2ccccc2)C(=O)C(Br)=C1Nc1ccccc1
inactive: [11] 98 % of control | [12] 93 % of control

CC1CCCN(c2cc(N(C)C)c([N+](=O)[O-])cc2F)C1 (stereo not given)
inactive: [11] 99 % of control | [12] 107 % of control | [13] 105 % of control

O=Cc1c(-c2ccccc2)nc2sccn12
inactive: dose: 50.0 mg/kg/injection, schedule: Q04DX003 (ip), vehicle: Klucel (hydroxypropylcellulose) (HPC) 96 % of control | dose: 100.0 mg/kg/injection, schedule: Q01DX001 (ip), vehicle: Klucel (hydroxypropylcellulose) (HPC) 100 % of control | dose: 100.0 mg/kg/injection, schedule: Q04DX003 (ip), vehicle: Klucel (hydroxypropylcellulose) (HPC) 96 % of control | dose: 200.0 mg/kg/injection, schedule: Q01DX001 (ip), vehicle: Klucel (hydroxypropylcellulose) (HPC) 100 % of control | dose: 200.0 mg/kg/injection, schedule: Q04DX003 (ip), vehicle: Klucel (hydroxypropylcellulose) (HPC) 91 % of control | dose: 400.0 mg/kg/injection, schedule: Q01DX001 (ip), vehicle: Klucel (hydroxypropylcellulose) (HPC) 99 % of control

Cc1ccc(O)c(C(c2ccc3c(c2)OCO3)N2CCOCC2)c1 (stereo not given)
inactive: [5] 101 % of control | [6] 100 % of control | [10] 97 % of control

COC1=C(C)[C@@H]2CC(=O)O[C@@H]3C[C@H]4[C@H](C)C[C@H](OC5OC(CO)C(O)C(O)C5O)C(=O)[C@]4(C)[C@@H](C1=O)[C@@]32C (stereo not given in full)
inactive: dose: 5.0 mg/kg/injection, schedule: Q01DX005 (ip), vehicle: Klucel (hydroxypropylcellulose) (HPC) 103 % of control | dose: 10.0 mg/kg/injection, schedule: Q01DX005 (ip), vehicle: Klucel (hydroxypropylcellulose) (HPC) 107 % of control | dose: 20.0 mg/kg/injection, schedule: Q01DX005 (ip), vehicle: Klucel (hydroxypropylcellulose) (HPC) 103 % of control

O=C1C=CC(=Nc2cc(Cl)c(O)c(Cl)c2)C=C1
inactive: [1] 96 % of control | [2] 92 % of control | [3] 88 % of control

CC(=O)N(CC1OC2OC(C)(C)OC2C2OC(C)(C)OC12)N=Nc1ccc([N+](=O)[O-])cc1 (stereo not given)
inactive: [11] 100 % of control | [12] 89 % of control | [13] 91 % of control

Cn1c2cc(=O)ccc2c2c3nc4ccccc4[nH]c3cc(O)c21
inactive: [4] 98 % of control and 100 % of control | dose: 100.0 mg/kg/injection, schedule: Q01DX009 (ip), vehicle: saline 95 % of control and 91 % of control | dose: 200.0 mg/kg/injection, schedule: Q01DX009 (ip), vehicle: saline 100 % of control and 104 % of control

Cc1cccc(NC(=O)Nc2ccccc2Cl)n1
inactive: [7] 102 % of control | [9] 96 % of control | [8] 93 % of control
